From US9521847B2, “Synergistic weed control from applications of pyridine carboxylic acid herbicides and synthetic auxin herbicides and/or auxin transport inhibitors” (Dow AgroSciences LLC, priority 2014, dated 2016)
Like-named read-outs stand apart in the source and are kept apart here.

Tests used:
[1] = system: ivyleaf morningglory (Ipomoea hederacea, IPOHE); test: Greenhouse postemergence trial, % visual injury
maize (ZEAMX) = test: Greenhouse postemergence trial, crop phytotoxicity (% visual injury)
[2] = system: wild pansy (Viola tricolor, VIOTR); test: Greenhouse postemergence trial, % visual injury; conditions: for % visual injury, Obs: VIOTR; for pest or weed control at 5 g/ha: Viola tricolor, post-emergence, read-out: % visual injury Obs
[3] = system: velvetleaf (Abutilon theophrasti, ABUTH); test: Greenhouse postemergence trial, % visual injury; format: in vivo; conditions: for % visual injury Obs: 5 g ae/ha alone, 20-22 d
winter wheat (TRZAW) = test: Greenhouse postemergence trial, crop phytotoxicity (% visual injury); conditions: for % visual injury, Obs: TRZAW; for % visual injury Obs: crop, 5 g ae/ha alone, 20-22 d
[4] = system: Canadian thistle (CIRAR, Cirsium arvense); test: Greenhouse postemergence trial, % visual injury; conditions: for pest or weed control at 400 g/ha / pest or weed control at 5 g/ha: Cirsium arvense, post-emergence; for % visual injury, Obs: CIRAR; for pest or weed control at 5 g/ha: read-out: % visual injury Obs;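 as to all read-outs here: plants sprayed at second to third true leaf stage, injury scored visually 20-22 d later against solvent-blank sprayed controls, 0 meaning no injury and 100 complete kill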
[5] = system: kochia (KCHSC, Kochia scoparia); test: Greenhouse postemergence trial, % visual injury; format: in vivo
Experimental: Following the protocol in Example 1, compound 1 and compound 2 were combined with 2,4 D EHE (EC) and applied to kochia (KCHSC, Kochia scoparia) and the phytotoxicity of the herbicidal compositions was measured.
Following the protocol in Example 1, compound 1 (EC) and Compound 2 (SC) were combined with diflufenzopyr and applied to kochia (Kochia scoparia, KCHSC) and the phytotoxicity of the herbicidal composition was measured.

[6] = system: sunflower (Helianthus annus, HELAN); test: Greenhouse postemergence trial, % visual injury; format: in vivo
common rice (ORYSA) = test: Greenhouse postemergence trial, crop phytotoxicity (% visual injury); conditions: for % visual injury, Obs: ORYSA
[7] = system: spring rape (Brassica napus, BRSNN); test: Greenhouse postemergence trial, % visual injury; conditions: for plant injury at 400 g/ha / plant injury at 5 g/ha: Brassica napus, post-emergence; for plant injury at 5 g/ha: read-out: % visual injury Obs
[8] = system: nutsedge (Cyperus esculentus, CYPES); test: Greenhouse postemergence trial, % visual injury; format: in vivo; conditions: for pest or weed control at 5 g/ha: Cyperus, post-emergence, 5 g ae/ha alone, 20-22 d, read-out: % visual injury Obs
[9] = system: poinsettia (Euphorbia heterophylla, EPHHL); test: Greenhouse postemergence trial, % visual injury; conditions: for pest or weed control at 5 g/ha: Euphorbia heterophylla, post-emergence, read-out: % visual injury Obs, 5 g ae/ha alone, 20-22 d
[10] = system: wild buckwheat (Polygonum convolvulus, POLCO); test: Greenhouse postemergence trial, % visual injury; format: in vivo; conditions: for % visual injury Obs: 5 g ae/ha alone, 20-22 d
[11] = system: common chickweed (Stellaria media, STEME); test: Greenhouse postemergence trial, % visual injury; format: in vivo; conditions: for % visual injury Obs: 5 g ae/ha alone, 20-22 d
[12] = system: large crabgrass (Digitaria sanguinalis, DIGSA); test: Greenhouse postemergence trial, % visual injury; format: in vivo; conditions: DIGSA, 5 g ae/ha
[13] = system: pigweed (AMARE, Amaranthus retroflexus); test: Greenhouse postemergence trial, % visual injury; format: in vivo; conditions: Amaranthus retroflexus, post-emergence; 5 g ae/ha alone; 20-22 d; read-out: % visual injury Obs
[14] = system: grain sorghum (Sorghum vulgare, SORVU); test: Greenhouse postemergence trial, % visual injury; format: in vivo; conditions: 5 g ae/ha alone; 20-22 d
[15] = read-out: % visual injury (Obs)

O=C(O)COc1ccc(Cl)cc1Cl [2,4-D DMA, 2,4-D-dimethylammonium]
% visual injury (Obs) ([1]; 2,4-D DMA 400 g ae/ha): 80%
% visual injury (Obs) (maize (ZEAMX); 2,4-D DMA 400 g ae/ha): 0%
% visual injury (Obs) ([2]; 2,4-D DMA 400 g ae/ha): 65%
% visual injury (Obs) ([3]; 2,4-D DMA 400 g ae/ha): 75%
% visual injury (Obs) (winter wheat (TRZAW); 2,4-D DMA 400 g ae/ha): 0%
pest or weed control at 400 g/ha ([4]; read-out: % visual injury (Obs), 2,4-D DMA 400 g ae/ha): 70%
% visual injury (Obs) ([5]; 2,4-D DMA 400 g ae/ha): 10%
% visual injury (Obs) ([6]; 2,4-D DMA 400 g ae/ha): 80%
% visual injury (Obs) (common rice (ORYSA); 2,4-D DMA 400 g ae/ha): 0%
plant injury at 400 g/ha [7, 15]: 85%
% visual injury (Obs) ([8]; 2,4-D DMA 400 g ae/ha): 30%

O=C(O)CCCOc1ccc(Cl)cc1Cl [2,4-DB DMA, 4-DB-dimethylammonium (2,4-DB DMA)]
% visual injury (Obs) ([1]; 2,4-DB DMA 400 g ae/ha): 70%
% visual injury (Obs) (maize (ZEAMX); 2,4-DB DMA 400 g ae/ha): 0%
% visual injury (Obs) (winter wheat (TRZAW); 2,4-DB DMA 400 g ae/ha): 10%
% visual injury (Obs) ([9]; 2,4-DB DMA 400 g ae/ha): 10%
pest or weed control at 400 g/ha ([4]; read-out: % visual injury (Obs), 2,4-DB DMA 400 g ae/ha): 40%
% visual injury (Obs) ([5]; 2,4-DB DMA 400 g ae/ha): 10%
% visual injury (Obs) (common rice (ORYSA); 2,4-DB DMA 400 g ae/ha): 0%
plant injury at 400 g/ha [7, 15]: 70%
% visual injury (Obs) ([10]; 2,4-DB DMA 400 g ae/ha): 60%
% visual injury (Obs) ([8]; 2,4-DB DMA 400 g ae/ha): 0%

Cc1cc(Cl)ccc1OCC(=O)O [MCPA DMA, MCPA-dimethylammonium]
% visual injury, Obs ([11]; STEME, 400 g ae/ha): 20%
% visual injury, Obs ([2]; 400 g ae/ha): 30%
% visual injury, Obs (winter wheat (TRZAW); 400 g ae/ha): 0%
% visual injury, Obs ([4]; 400 g ae/ha): 65%
% visual injury, Obs (common rice (ORYSA); 400 g ae/ha): 0%
plant injury at 400 g/ha ([7]; read-out: % visual injury, Obs): 95%

COc1c(Cl)ccc(-c2nc(C(=O)OCc3ccccc3)c(Cl)c(N)c2F)c1F [Rinskor ™]
% visual injury, Obs (maize (ZEAMX); ZEAMX, 5 g ae/ha): 0%
% visual injury, Obs ([2]; 5 g ae/ha): 10%
% visual injury, Obs ([3]; ABUTH, 5 g ae/ha): 80%
% visual injury, Obs (winter wheat (TRZAW); 5 g ae/ha): 0%
% visual injury, Obs ([4]; 5 g ae/ha): 70%
% visual injury, Obs ([5]; KCHSC, 5 g ae/ha): 50%
% visual injury, Obs ([6]; HELAN, 5 g ae/ha): 85%
% visual injury, Obs [12]: 0%
% visual injury, Obs (common rice (ORYSA); 5 g ae/ha): 0%
% visual injury, Obs ([7]; BRSNN, 5 g ae/ha): 20%
% visual injury, Obs ([10]; POLCO, 5 g ae/ha): 60%
% visual injury, Obs ([8]; CYPES, 5 g ae/ha): 70%

COC(=O)c1nc(-c2ccc3scnc3c2)c(F)c(N)c1Cl [compound 8]
% visual injury Obs [11]: 45%
pest or weed control at 5 g/ha [2]: 10%
% visual injury Obs [3]: 20%
% visual injury Obs (winter wheat (TRZAW)): 5%
pest or weed control at 5 g/ha [13]: 78%
pest or weed control at 5 g/ha [9]: 84%
pest or weed control at 5 g/ha [4]: 30%
plant injury at 5 g/ha [7]: 63%

COC(=O)c1nc(-c2ccc3sccc3c2)c(F)c(N)c1Cl [compound 9]
% visual injury Obs (maize (ZEAMX); crop, 5 g ae/ha alone, 20-22 d): 0%
pest or weed control at 5 g/ha [2]: 15%
% visual injury Obs (winter wheat (TRZAW)): 0%
pest or weed control at 5 g/ha [9]: 60%
pest or weed control at 5 g/ha [4]: 10%
plant injury at 5 g/ha [7]: 10%
% visual injury Obs [10]: 25%
pest or weed control at 5 g/ha [8]: 0%

Nc1c(F)c(-c2ccc3ccoc3c2)nc(C(=O)O)c1Cl [compound 10]
% visual injury Obs [11]: 70%
pest or weed control at 5 g/ha [2]: 25%
% visual injury Obs [3]: 15%
% visual injury Obs (winter wheat (TRZAW)): 5%
% visual injury Obs [14]: 5%
pest or weed control at 5 g/ha [9]: 75%
pest or weed control at 5 g/ha [4]: 15%
plant injury at 5 g/ha [7]: 15%
% visual injury Obs [10]: 10%
pest or weed control at 5 g/ha [8]: 5%
